Earlier results, collected in patent publication US7989007B2, “Weight loss composition” (Vincent James Enterprises, LLC, priority 2007, dated 2011).

Settings: subjects treated for hypertension; similar degree of hypertension control

For `CC(C)NCC(O)COc1ccc(CC(N)=O)cc1` (stereo not shown) [atenolol], the “weight gain compared to patients treated with captopril” value is given as “twice the weight gain”.
